This is an account of results in paper PMC11944677, “Integrating Surface Plasmon Resonance and Docking Analysis for Mechanistic Insights of Tryptase Inhibitors” (Molecules, 2025).

In this test the target is T1, human tryptase beta-2 (hTPSB2) (Homo sapiens, UniProt P20231).
T1 construct: gene TPSB2
The test is described as follows: biochemical.

The structures appear in SMILES notation.

T1 sequence (P20231 31-275): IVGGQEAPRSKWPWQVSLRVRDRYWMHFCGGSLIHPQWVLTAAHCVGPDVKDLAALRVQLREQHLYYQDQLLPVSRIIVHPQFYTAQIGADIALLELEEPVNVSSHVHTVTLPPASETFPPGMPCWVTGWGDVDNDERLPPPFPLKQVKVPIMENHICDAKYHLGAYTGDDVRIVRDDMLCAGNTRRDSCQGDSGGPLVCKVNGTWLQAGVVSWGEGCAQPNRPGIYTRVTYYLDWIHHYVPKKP

For the compound `C[Si](C)(O[Si](C)(C)c1coc2ccc(C(=O)N3CCC(c4cccc(CN)c4)CC3)cc12)c1coc2ccc(C(=O)N3CCC(c4cccc(CN)c4)CC3)cc12` [#2d, compound #2d], binding was characterised by a dissociation constant (Kd) of 2.1 nM.

Compound `C[Si](C)(O)c1coc2ccc(C(=O)N3CCC(c4cccc(CN)c4)CC3)cc12` [#2m, compound #2m] gave a Kd of 81 nM.

What is called Kd is the concentration at which binding is half-saturated. Lower therefore signals a tighter complex.
